# Values quoted from earlier work in patent US12290596B2, “Compositions and methods for the treatment of opioid overdose” (priority 2021, dated 2025).
# Details: intranasal formulation with […] Intravail; cited from earlier work
smiles,measurement,value
CNS(=O)(=O)Cc1ccc2[nH]cc(CCN(C)C)c2c1 [sumatriptan],Increase of maximum plasma concentration in comparison to Imitrex nasal spray,almost four-fold
same,Increase of total exposure (AUC),32%
same,Tmax,8 to 10 min
